Relative viability data for one cell line are collected here from the supplement of paper PMC10307832.

Holding throughout (assay): relative viability (nuclei count vs DMSO), 5 days (fraction); higher = more cells survive
Compound in the experiment “MLN4924 + Decitabine”: NS(=O)(=O)OC[C@@H]1C[C@@H](n2ccc3c(N[C@H]4CCc5ccccc54)ncnc32)C[C@@H]1O [MLN4924] + Nc1ncn([C@H]2C[C@H](O)[C@@H](CO)O2)c(=O)n1 [Decitabine] (partner 2 µM)
In a few lines:
(§1)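 Lung cancer cell lines in 1536-well plates were dosed by pin tool the day after seeding, either with one drug alone or with a fixed anchor-drug dose plus five library-drug doses (not always all listed) in √10 steps. After 5 days, cells were fixed and their nuclei stained in one step (final 0.05% Triton X-100, 1% formaldehyde, 1 ug/ml Hoechst), then counted on 4× images. Relative viability is the nuclei count in treated wells divided by that in vehicle wells. Values are medians of duplicate plates.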

Compound in the experiment “Carboplatin + Pictilisib”: C1CC(C1)(C(=O)O)C(=O)O.[NH2-].[NH2-].[Pt+2] [Carboplatin] + CS(=O)(=O)N1CCN(Cc2cc3nc(-c4cccc5[nH]ncc45)nc(N4CCOCC4)c3s2)CC1 [Pictilisib] (partner 1 µM)
A digest of the protocol:
as §1

Compound in the experiment “MLN4924 + Luminespib”: NS(=O)(=O)OC[C@@H]1C[C@@H](n2ccc3c(N[C@H]4CCc5ccccc54)ncnc32)C[C@@H]1O [MLN4924] + CCNC(=O)c1noc(-c2cc(C(C)C)c(O)cc2O)c1-c1ccc(CN2CCOCC2)cc1 [Luminespib] (partner 0.01 µM)
In a few lines: as §1

Compound in the experiment “Carboplatin + Decitabine”: C1CC(C1)(C(=O)O)C(=O)O.[NH2-].[NH2-].[Pt+2] [Carboplatin] + Nc1ncn([C@H]2C[C@H](O)[C@@H](CO)O2)c(=O)n1 [Decitabine] (partner 2 µM)
A digest of the protocol:
as §1

Take UMC-11: the relative viability in the experiment with MLN4924 + Decitabine (first compound 0.04 µM) is 0.559; with MLN4924 + Decitabine (first compound 0.1265 µM), 0.511; with MLN4924 + Decitabine (first compound 0.4 µM), 0.402; in the experiment with MLN4924 + Decitabine (first compound 1.265 µM), 0.309; in the experiment with MLN4924 + Decitabine (first compound 4 µM) it was 0.277; with Carboplatin + Pictilisib (first compound 0.08 µM) it was 0.779. The relative viability with Carboplatin + Pictilisib (first compound 0.253 µM) amounted to 0.777; with Carboplatin + Pictilisib (first compound 0.8 µM), 0.76; in the experiment with Carboplatin + Pictilisib (first compound 2.53 µM) it was 0.78; in the experiment with Carboplatin + Pictilisib (first compound 8 µM) it was 0.587; with MLN4924 + Luminespib (first compound 0.04 µM) it was 0.598; with MLN4924 + Luminespib (first compound 0.1265 µM) it was 0.351. Further, the relative viability is 0.285 in the experiment with MLN4924 + Luminespib (first compound 0.4 µM); 0.17 in the experiment with MLN4924 + Luminespib (first compound 1.265 µM); 0.182 with MLN4924 + Luminespib (first compound 4 µM); 0.596 in the experiment with Carboplatin + Decitabine (first compound 0.08 µM); 0.626 with Carboplatin + Decitabine (first compound 0.253 µM); 0.482 with Carboplatin + Decitabine (first compound 0.8 µM). For the same cell line, the relative viability with Carboplatin + Decitabine (first compound 2.53 µM) is 0.576; with Carboplatin + Decitabine (first compound 8 µM) it was 0.418.
